According to ChEMBL document CHEMBL3714766, “Tetrahydroisoquinoline compounds and their use as pyruvate dehydrogenase kinase inhibitors” (2015):

Target: Pyruvate dehydrogenase kinase (Homo sapiens, UniProt Q15119+Q15120+Q16654+Q15118)
Experiment: Binding affinity to pyruvate dehydrogenase kinase (unknown origin) by VER-00160364 probe based fluorescence polarization assay

SMILES	IC50 [nM]
CC1CCc2cc(-c3ncccc3C#N)ccc2N1C(=O)c1ccc(O)cc1O (stereo not drawn)	100
CC1CCc2cc(-c3ccnn3C)ccc2N1C(=O)c1ccc(O)cc1O (stereo not drawn)	100
C[C@H]1CCc2cc(-c3nc(C(F)(F)F)nc4ccccc34)ccc2N1C(=O)c1ccc(O)cc1O	1000
C[C@H]1CCc2cc(-c3cc4occc4cn3)ccc2N1C(=O)c1ccc(O)cc1O	100
Cc1cnc(-c2ccc3c(c2)CCC(C)N3C(=O)c2cc(Cl)c(O)cc2O)n1C (stereo not drawn)	1000
O=C(c1ccc(O)cc1O)N1CCCc2cc(-c3ncccc3C(F)(F)F)ccc21	1000
N#Cc1cccnc1-c1ccc2c(c1)CCCN2C(=O)c1ccc(O)cc1O	1000
C[C@H]1CCc2cc(C(=O)N(C)Cc3ccnc(Cl)c3)ccc2N1C(=O)c1ccc(O)cc1O	100
C[C@H]1CCc2cc(-c3nc(Cl)nc4c3COCC4)ccc2N1C(=O)c1ccc(O)cc1O	100
CC1CCc2cc(-c3ncccc3C(F)(F)F)ccc2N1C(=O)c1ccc(O)cc1O (stereo not drawn)	100
C[C@H]1CCc2cc(-c3nccc4occc34)ccc2N1C(=O)c1ccc(O)cc1O	1000
C[C@H]1CCc2cc(C(=O)N(C)Cc3ccc4c(ccn4C)c3)ccc2N1C(=O)c1ccc(O)cc1O	100
O=C(c1ccc(O)cc1O)N1CCCc2cc(-c3ncccc3Cl)ccc21	1000
Cc1nc(C)c(-c2ccc3c(c2)CCCN3C(=O)c2ccc(O)cc2O)s1	100
CC1CCc2cc(-c3occc3C#N)ccc2N1C(=O)c1ccc(O)cc1O (stereo not drawn)	1000
C[C@H]1CCc2cc(-c3ccc(OCCN4CCCC4)nn3)ccc2N1C(=O)c1ccc(O)cc1O	1000
C[C@H]1CCc2cc(-c3cc4nccnc4cn3)ccc2N1C(=O)c1ccc(O)cc1O	100
Cc1ccc[n+]([O-])c1-c1ccc2c(c1)CC[C@H](C)N2C(=O)c1ccc(O)cc1O	100
C[C@H]1CCc2cc(-c3nc(-c4ccccc4)nc4ccccc34)ccc2N1C(=O)c1ccc(O)cc1O	1000
Cn1nccc1-c1ccc2c(c1)CCCN2C(=O)c1ccc(O)cc1O	100
C[C@H]1CCc2cc(-c3cnc4ccccc4n3)ccc2N1C(=O)c1ccc(O)cc1O	1000
Cn1ccnc1-c1ccc2c(c1)CCCN2C(=O)c1ccc(O)cc1O	1000
CC1CCc2cc(-c3nccn3C)ccc2N1C(=O)c1cc(Cl)c(O)cc1O (stereo not drawn)	1000
COc1cc(-c2ccc3c(c2)CC[C@H](C)N3C(=O)c2ccc(O)cc2O)cnc1OC	100

SMILES	IC50 [nM]
C[C@H]1CCc2cc(-c3nc(C(N)=O)nc4ccccc34)ccc2N1C(=O)c1ccc(O)cc1O	100
CCc1cc2ccccc2nc1-c1ccc2c(c1)CC[C@H](C)N2C(=O)c1ccc(O)cc1O	1000
CSc1nc2c(c(-c3ccc4c(c3)CC[C@H](C)N4C(=O)c3ccc(O)cc3O)n1)CCC2	1000
CC1CCc2cc(-c3ncccc3C(F)(F)F)ccc2N1C(=O)c1cc(Cl)c(O)cc1O (stereo not drawn)	1000
Cc1c(-c2ccc3c(c2)CC[C@H](C)N3C(=O)c2ccc(O)cc2O)ccc2[nH]ncc12	1000
C[C@H]1CCc2cc(-c3ccc(-c4ccccc4)cn3)ccc2N1C(=O)c1ccc(O)cc1O	10000
Cc1cccnc1-c1ccc2c(c1)CCCN2C(=O)c1ccc(O)cc1O	1000
Cc1cn(C)c(-c2ccc3c(c2)CCC(C)N3C(=O)c2cc(Cl)c(O)cc2O)n1 (stereo not drawn)	1000
Cc1cccnc1-c1ccc2c(c1)CCCN2C(=O)c1cc(C(F)(F)F)c(O)cc1O	10000
CSc1nc(Cl)cc(-c2ccc3c(c2)CC[C@H](C)N3C(=O)c2ccc(O)cc2O)n1	1000
CC(=O)Nc1ccc(-c2ccc3c(c2)CC[C@H](C)N3C(=O)c2ccc(O)cc2O)c(C)c1	100
C[C@H]1CCc2cc(-c3ccncc3C(F)(F)F)ccc2N1C(=O)c1ccc(O)cc1O	100
C[C@H]1CCc2cc(C(=O)N3CCN(C(=O)OC(C)(C)C)CC3)ccc2N1C(=O)c1ccc(O)cc1O	1000
C[C@H]1CCc2cc(-c3ccc(-c4ccccc4Cl)cn3)ccc2N1C(=O)c1ccc(O)cc1O	10000
C[C@H]1CCc2cc(-c3ncccc3C(F)(F)F)ccc2N1C(=O)c1ccc(O)cc1O	100
C[C@H]1CCc2cc(-c3nc(C(F)(F)F)ccc3C(F)(F)F)ccc2N1C(=O)c1ccc(O)cc1O	1000
CC1CCc2cc(-c3ncccc3Cl)ccc2N1C(=O)c1cc(Cl)c(O)cc1O (stereo not drawn)	1000
Cc1cc(CNc2ccc(-c3ccc4c(c3)CC[C@H](C)N4C(=O)c3ccc(O)cc3O)c(C)n2)on1	100
COc1cc2ncnc(-c3ccc4c(c3)CC[C@H](C)N4C(=O)c3ccc(O)cc3O)c2cc1OC	1000
Cc1nc(C)c(-c2ccc3c(c2)CCC(C)N3C(=O)c2cc(Cl)c(O)cc2O)s1 (stereo not drawn)	1000
C[C@H]1CCc2cc(-c3ncccc3C#N)ccc2N1C(=O)c1ccc(O)cc1O	100
Cc1cccnc1-c1ccc2c(c1)CCC(C)N2C(=O)c1cc(Cl)c(O)cc1O (stereo not drawn)	100
CC1CCc2cc(-c3ncccc3C#N)ccc2N1C(=O)c1cc(Cl)c(O)cc1O (stereo not drawn)	1000
C[C@H]1CCc2cc(-c3ccc(Cl)nc3)ccc2N1C(=O)c1ccc(O)cc1O	1000

Other lines, results leading:

IC50 [nM]	SMILES
100	Cc1c(Cl)nc(Cl)nc1-c1ccc2c(c1)CC[C@H](C)N2C(=O)c1ccc(O)cc1O
10	Cc1cnc(Cl)nc1-c1ccc2c(c1)CCC(C)N2C(=O)c1ccc(O)cc1O (stereo not drawn)
100	COCCNc1ncc(C)c(-c2ccc3c(c2)CC[C@H](C)N3C(=O)c2ccc(O)cc2O)n1
1000	Cc1cnc(NC2CCCC2)nc1-c1ccc2c(c1)CC[C@H](C)N2C(=O)c1ccc(O)cc1O
100	C[C@H]1CCc2cc(-c3ccnc(N)n3)ccc2N1C(=O)c1ccc(O)cc1O
100	CNc1ccc(-c2ccc3c(c2)CC[C@H](C)N3C(=O)c2ccc(O)cc2O)c(C)n1
100	Cc1cncnc1-c1ccc2c(c1)CC[C@H](C)N2C(=O)c1ccc(O)cc1O
100	CC1CCc2cc(-c3ncccc3Cl)ccc2N1C(=O)c1ccc(O)cc1O (stereo not drawn)
10	Cc1cc(Cl)nnc1-c1ccc2c(c1)CC[C@H](C)N2C(=O)c1ccc(O)cc1O
1000	Cc1cnc(NCCN(C)C)nc1-c1ccc2c(c1)CC[C@H](C)N2C(=O)c1ccc(O)cc1O
1000	Cc1nc(N(C)C)nc(-c2ccc3c(c2)CC[C@H](C)N3C(=O)c2ccc(O)cc2O)c1C
100	Cc1cc(-c2ccc3c(c2)CC[C@H](C)N3C(=O)c2ccc(O)cc2O)nnc1Cl
100	CCc1nccnc1-c1ccc2c(c1)CC[C@H](C)N2C(=O)c1ccc(O)cc1O
100	CC(=O)Nc1ccc(-c2ccc3c(c2)CC[C@H](C)N3C(=O)c2ccc(O)cc2O)c(C)n1
1000	Cc1nc(C)c(-c2ccc3c(c2)CC[C@H](C)N3C(=O)c2ccc(O)cc2O)s1
100	CC1CCc2cc(-c3nccn3C)ccc2N1C(=O)c1ccc(O)cc1O (stereo not drawn)
1000	Cc1cc2cc(F)ccc2nc1-c1ccc2c(c1)CC[C@H](C)N2C(=O)c1ccc(O)cc1O
100	CCCc1cncnc1-c1ccc2c(c1)CC[C@H](C)N2C(=O)c1ccc(O)cc1O
100	Cc1nccnc1-c1ccc2c(c1)CCC(C)N2C(=O)c1ccc(O)cc1O (stereo not drawn)
100	Cc1ccnnc1-c1ccc2c(c1)CCC(C)N2C(=O)c1ccc(O)cc1O (stereo not drawn)
1000	Cc1cc(-c2ccc3c(c2)CC[C@H](C)N3C(=O)c2ccc(O)cc2O)cnc1Cl
100	C[C@H]1CCc2cc(-c3ncccc3CO)ccc2N1C(=O)c1ccc(O)cc1O
1000	CCOc1ccc2nc(-c3ccc4c(c3)CC[C@H](C)N4C(=O)c3ccc(O)cc3O)c(C)cc2c1

IC50 [nM]	SMILES
100	Cc1cnc(C)c(-c2ccc3c(c2)CC[C@H](C)N3C(=O)c2ccc(O)cc2O)n1
100	CCc1cnc(C)nc1-c1ccc2c(c1)CC[C@H](C)N2C(=O)c1ccc(O)cc1O
10000	Cc1cccnc1-c1ccc2c(c1)CC[C@@H](C)N2C(=O)c1ccc(O)cc1O
10	Cc1nc(C)c(-c2ccc3c(c2)CCC(C)N3C(=O)c2ccc(O)cc2O)s1 (stereo not drawn)
100	C[C@H]1CCc2cc(-c3ncccc3Cl)ccc2N1C(=O)c1ccc(O)cc1O
100	COc1ccc2nc(-c3ccc4c(c3)CC[C@H](C)N4C(=O)c3ccc(O)cc3O)c(C)cc2c1
100	C[C@H]1CCc2cc(-c3ncncc3C#N)ccc2N1C(=O)c1ccc(O)cc1O
100	Cc1cccnc1-c1ccc2c(c1)CC[C@H](C)N2C(=O)c1ccc(O)cc1O
1000	Cc1cc2cc(Cl)ccc2nc1-c1ccc2c(c1)CC[C@H](C)N2C(=O)c1ccc(O)cc1O
100	Cc1ccnnc1-c1ccc2c(c1)CC[C@H](C)N2C(=O)c1ccc(O)cc1O
100	Cc1cccnc1-c1ccc2c(c1)CCC(C)N2C(=O)c1ccc(O)cc1O (stereo not drawn)
10000	Cc1cnc(Cl)nc1-c1ccc2c(c1)CC[C@@H](C)N2C(=O)c1ccc(O)cc1O
1000	CCOC(=O)c1nc(C)nc(-c2ccc3c(c2)CC[C@H](C)N3C(=O)c2ccc(O)cc2O)c1C
100	CNc1nccc(-c2ccc3c(c2)CC[C@H](C)N3C(=O)c2ccc(O)cc2O)n1
100	Cc1cnc(OCCN(C)C)nc1-c1ccc2c(c1)CC[C@H](C)N2C(=O)c1ccc(O)cc1O
1000	COc1cc(-c2ccc3c(c2)CC[C@H](C)N3C(=O)c2ccc(O)cc2O)ncn1
100	Cc1nc(N)ccc1-c1ccc2c(c1)CC[C@H](C)N2C(=O)c1ccc(O)cc1O
100	Cc1nc(-c2ccc3c(c2)CC[C@H](C)N3C(=O)c2ccc(O)cc2O)c2ccccc2n1
1000	Cc1cc2cccc(C)c2nc1-c1ccc2c(c1)CC[C@H](C)N2C(=O)c1ccc(O)cc1O
100	Cc1cnc(NC(C)C)nc1-c1ccc2c(c1)CC[C@H](C)N2C(=O)c1ccc(O)cc1O
100	Cc1cc2ccc(F)cc2nc1-c1ccc2c(c1)CC[C@H](C)N2C(=O)c1ccc(O)cc1O
100	Cc1nccnc1-c1ccc2c(c1)CC[C@H](C)N2C(=O)c1ccc(O)cc1O
